Patent US11214594B2, “Antimicrobial peptide having synergistic antibacterial effect with antibiotics on multidrug resistant bacteria, and use thereof” (priority 2016, dated 2022)
≈ marks a conversion by molar mass, not a printed value. Read-outs that look alike come from different tables or passages of the source. Where a SMILES comes first, the peptide text is derived from it.

Experiments:
E. coli [1] = format: cell-based, Escherichia coli; details: E. coli
Method in brief: (§1)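 Broth microdilution in MH medium; strains were diluted to 2×10^6 CFU per ml before plating. Peptide was serially diluted stepwise at 2:1 starting from its MIC, and MH-diluted antibiotic was then added to determine MIC. The reversed arrangement was also tested.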

MDREC 1229 = format: cell-based, Escherichia coli
Method in brief: as §1

A. baumannii = assay: MIC of antibiotic during combined treatment with antimicrobial peptide; format: cell-based, Acinetobacter baumannii; details: for Antibiotic MIC, Erythromycin / Antibiotic MIC, Linezolid / Antibiotic MIC, Vancomycin: A. baumannii
Method in brief: (§2)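 Using MH broth, we determined combination MICs by titrating the antibiotic into wells and then repeating under the reverse dilution scheme.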

MDRST 8007 = assay: Minimal inhibitory concentration (MIC), single agent; format: cell-based, Salmonella typhimurium; details: agent alone
Method in brief: (§3)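 Each strain is brought to 2×10^6 CFU in nutrient-sufficient Mueller-Hinton medium and dispensed into wells. Peptide solutions, stepwise diluted 2:1 in the same medium, are then added. The minimal concentration preventing growth gives the MIC.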

MDRAB 12036 = format: cell-based, Acinetobacter baumannii
Method in brief: as §3

S. aureus = assay: microbe, parasite or virus in culture; format: cell-based, Staphylococcus aureus
Method in brief: as §3

B. subtilis = assay: microbe, parasite or virus in culture; format: cell-based, Bacillus subtilis
Method in brief: as §3

E. coli [2] = assay: MIC of antibiotic during combined treatment with antimicrobial peptide; format: cell-based, Escherichia coli; details: for Antibiotic MIC, Erythromycin / Antibiotic MIC, Linezolid / Antibiotic MIC, Vancomycin: E. coli
Method in brief: as §2

[3] = with Erythromycin […] (Conc./MIC 1)
[4] = combined with peptide at 1 μg/ml
[5] = combined with peptide at 2 μg/ml
[6] = combined with peptide at 4 μg/ml
[7] = combined with peptide at 6 μg/ml
[8] = combined with peptide at 8 μg/ml
[9] = combined with peptide at 16 μg/ml
[10] = combined with peptide at 32 μg/ml
[11] = combined with peptide at 64 μg/ml

## CC[C@H](C)[C@H](NC(=O)[C@H](CCCCN)NC(=O)[C@H](Cc1c[nH]c2ccccc12)NC(=O)[C@@H](N)CCCNC(=N)N)C(=O)N[C@@H](Cc1ccccc1)C(=O)N[C@@H](CCCCN)C(=O)N[C@@H](CCCCN)C(=O)N[C@H](C(=O)N1CCC[C@H]1C(=O)N[C@@H](CCCCN)C(=O)N[C@@H](Cc1ccccc1)C(=O)N[C@@H](CC(C)C)C(=O)N[C@@H](Cc1c[nH]cn1)C(=O)N[C@@H](CO)C(=O)N[C@@H](Cc1c[nH]c2ccccc12)C(=O)N[C@@H](CCCCN)C(=O)N[C@@H](CCCCN)C(=O)N[C@@H](Cc1ccccc1)C(N)=O)[C@@H](C)CC [PapMA-3, RWK IFK KIP KFL HSW KKF-NH2] (H-RWKIFKKIPKFLHSWKKF-NH2; N-terminus assumed)
E. coli [1]; [3]
  Peptide MIC: 0 µg/mL
E. coli [1]; with Linezolid […] (Conc./MIC 1)
  Peptide MIC: 0 µg/mL
E. coli [1]; with Vancomycin 1024 μg/ml (Conc./MIC 1)
  Peptide MIC: 0 µg/mL
MDREC 1229; [3]
  Peptide MIC: 0 µg/mL
MDREC 1229; with Linezolid 512 μg/ml (Conc./MIC 1)
  Peptide MIC: 0 µg/mL
A. baumannii; A. baumannii and MDRAB 12035
  Synergistic effect of antibacterial activity with existing antibiotics compared with PapMA-1: higher level than the PapMA-1 peptide
A. baumannii; [4]
  Antibiotic MIC, Erythromycin: 32 µg/mL
  Antibiotic MIC, Linezolid: >128 µg/mL
  Antibiotic MIC, Vancomycin: >128 µg/mL
A. baumannii; [5]
  Antibiotic MIC, Erythromycin: 16 µg/mL
  Antibiotic MIC, Linezolid: 64 µg/mL
  Antibiotic MIC, Vancomycin: 128 µg/mL
A. baumannii; [6]
  Antibiotic MIC, Erythromycin: 8 µg/mL
  Antibiotic MIC, Linezolid: 32 µg/mL
  Antibiotic MIC, Vancomycin: 64 µg/mL
A. baumannii; [7]
  Antibiotic MIC, Erythromycin: 1 µg/mL
  Antibiotic MIC, Linezolid: 16 µg/mL
  Antibiotic MIC, Vancomycin: 32 µg/mL
A. baumannii; [8]
  Antibiotic MIC, Erythromycin: 0.125 µg/mL
  Antibiotic MIC, Linezolid: 8 µg/mL
  Antibiotic MIC, Vancomycin: 32 µg/mL
A. baumannii; [9]
  Antibiotic MIC, Erythromycin: 0 µg/mL
  Antibiotic MIC, Linezolid: 0 µg/mL
  Antibiotic MIC, Vancomycin: 0 µg/mL
A. baumannii; [10]
  Antibiotic MIC, Erythromycin: 0 µg/mL
  Antibiotic MIC, Linezolid: 0 µg/mL
  Antibiotic MIC, Vancomycin: 0 µg/mL
A. baumannii; [11]
  Antibiotic MIC, Erythromycin: 0 µg/mL
  Antibiotic MIC, Linezolid: 0 µg/mL
  Antibiotic MIC, Vancomycin: 0 µg/mL
MDRST 8007
  Minimal inhibitory concentration MIC: 32 µg/mL (≈ 13.2 µM)
MDRAB 12036
  Minimal inhibitory concentration MIC: 16 µg/mL (≈ 6.62 µM)
S. aureus
  Minimal inhibitory concentration MIC: >128 µg/mL
B. subtilis
  Minimal inhibitory concentration MIC: >128 µg/mL
E. coli [2]; E. coli and MDREC1229
  Synergistic effect of antibacterial activity with existing antibiotics compared with PapMA-1: level similar to that of the PapMA-1 peptide
E. coli [2]; erythromycin combined with peptide at 1 μg/ml
  Antibiotic MIC, Erythromycin: 64 µg/mL
E. coli [2]; erythromycin combined with peptide at 2 μg/ml
  Antibiotic MIC, Erythromycin: 32 µg/mL
E. coli [2]; erythromycin combined with peptide at 4 μg/ml
  Antibiotic MIC, Erythromycin: 16 µg/mL
E. coli [2]; erythromycin combined with peptide at 6 μg/ml
  Antibiotic MIC, Erythromycin: 4 µg/mL
E. coli [2]; erythromycin combined with peptide at 8 μg/ml
  Antibiotic MIC, Erythromycin: 1 µg/mL
E. coli [2]; erythromycin combined with peptide at 16 μg/ml
  Antibiotic MIC, Erythromycin: 0.125 µg/mL
E. coli [2]; erythromycin combined with peptide at 32 μg/ml
  Antibiotic MIC, Erythromycin: 0 µg/mL
E. coli [2]; erythromycin combined with peptide at 64 μg/ml
  Antibiotic MIC, Erythromycin: 0 µg/mL
E. coli [2]; linezolid combined with peptide at 1 μg/ml
  Antibiotic MIC, Linezolid: 128 µg/mL
E. coli [2]; linezolid combined with peptide at 2 μg/ml
  Antibiotic MIC, Linezolid: 64 µg/mL
E. coli [2]; linezolid combined with peptide at 4 μg/ml
  Antibiotic MIC, Linezolid: 32 µg/mL
E. coli [2]; linezolid combined with peptide at 6 μg/ml
  Antibiotic MIC, Linezolid: 32 µg/mL
E. coli [2]; linezolid combined with peptide at 8 μg/ml
  Antibiotic MIC, Linezolid: 16 µg/mL
E. coli [2]; linezolid combined with peptide at 16 μg/ml
  Antibiotic MIC, Linezolid: 2 µg/mL
E. coli [2]; linezolid combined with peptide at 32 μg/ml
  Antibiotic MIC, Linezolid: 0 µg/mL
E. coli [2]; linezolid combined with peptide at 64 μg/ml
  Antibiotic MIC, Linezolid: 0 µg/mL
E. coli [2]; vancomycin combined with peptide at 1 μg/ml
  Antibiotic MIC, Vancomycin: >128 µg/mL
E. coli [2]; vancomycin combined with peptide at 2 μg/ml
  Antibiotic MIC, Vancomycin: >128 µg/mL
E. coli [2]; vancomycin combined with peptide at 4 μg/ml
  Antibiotic MIC, Vancomycin: >128 µg/mL
